Some results are limits rather than exact numbers.

We go through three compounds from article PMC11278016, “Discovery of Prenyltransferase-Guided Hydroxyphenylacetic Acid Derivatives from Marine Fungus Penicillium sp. W21C371” (Marine Drugs, 2024).

Assay [1] has as its target Escherichia coli β-glucuronidase (EcGUS) (Escherichia coli, UniProt P05804). The experiment in a line: EcGUS inhibition assay. Conditions: for IC50: EcGUS inhibition, mean ± SD, three independent experiments; for Ki′ (inhibition constant of the enzyme–substrate complex): EcGUS–substrate complex, secondary plot of Y-intercept versus [I]; for type of inhibition: Lineweaver–Burk plots; for Ki: free EcGUS, secondary plot of slope versus [I], Lineweaver–Burk, read-out: Ki (inhibition constant of the enzyme); for inhibition at 100 µM: preliminary screening at a concentration of 100 μM, read-out: relative inhibitory rate. In kind it is biochemical. The protocol: All isolates 1–17 were evaluated for their in vitro inhibitory activity against EcGUS, a potential target for the treatment of drug-induced gastrointestinal disorders, employing D-saccharic acid 1,4-lactone (DSL) as the positive control. […] In view of the potent inhibitory activity of 2 and 3 against EcGUS, their kinetic mechanisms of inhibition were determined using Lineweaver–Burk plots (Figure 5 and Table S1). The inhibition constants of the enzyme Ki and the enzyme–substrate complex Ki^′ were obtained by secondary plots of “slope versus [I]” and “Y-intercept versus [I]”, respectively. […] As a mixed-type inhibitor of EcGUS, 3 was supposed to bind either the free EcGUS or the EcGUS–substrate complex. […] To the best of our knowledge, 2 and 3 represent the first citridone and ergosterol derivatives with potent EcGUS-inhibitory activity. However, 2 and 3 were obtained in limited amount in the present study, preventing the in vivo evaluation of their EcGUS inhibition activity. The optimization of the fermentation and separation processes with the aim of increasing the yields of 2 and 3 is underway, which may help to accumulate greater amounts of the two compounds for further in-depth pharmacological studies.
Optical rotations were obtained with a Rudolph Research Autopol III automatic polarimeter. IR spectra were recorded on a Thermo Nicolet 6700 FT-IR microscope instrument (FT-IR microscope transmission) in KBr pellets. UV spectra were measured on a TU-1900 spectrometer (Persee, Beijing, China). Meanwhile, 1D and 2D-NMR spectra were obtained at 600 MHz for ^1H and 150 MHz for ^13C on a Bruker Avance 600 spectrometer, with solvent peaks used as references. HRESIMS data were measured on an Agilent-6210-LC/TOF mass spectrometer (Agilent Technologies, Inc., Santa Clara, CA, USA). EcGUS-inhibitory activity was measured spectrophotometrically using a SpectraMax Plus 384 microplate reader (Molecular Devices, San Jose, CA, USA). Column chromatography (CC) was performed on silica gel (SiO2; 200–300 mesh; Qingdao Marine Chemical Co., Ltd.), ODS C-18 gel (50 mm; YMC Co., Ltd., Kyoto, Japan), and MCI CHP20P gel (75–150 μm, Tokyo, Japan). Semi-preparative HPLC was performed on an Cosmosil 5C18-MS-II column (5 μm, 250 × 10 mm) with a Shimadzu LC-20AT system eluting with methanol/water or acetonitrile/water at a flow rate of 3 mL/min. Chiral separation was performed on a Chiralpak AD-H column (5 μm, 4.6 × 250 mm). Thin layer chromatography (TLC) was performed on precoated silica gel GF254 plates (Qingdao Marine Chemical Co., Ltd., Qingdao, China) and visualized by UV light and/or spraying with 10% H2SO4 in 95% EtOH, followed by heating. All solvents used were of analytical grade and obtained from commercially available sources. All reagents used for biological evaluation were obtained from Sigma-Aldrich (St. Louis, MO, USA).
The EcGUS inhibition assay was performed according to the method previously reported, employing DSL as the positive control. The results are presented as means ± SD for three independent experiments.

Assay [2] relates to methicillin-resistant Staphylococcus aureus (MRSA). Also noted: method as in PMID 24643052. The following applies: MRSA virulence factor; cited from earlier work.
Another assay has as its system Candida albicans. Also noted: method as in PMID 19160522. The following applies: against Candida albicans; cited from earlier work.

Sequence of Escherichia coli β-glucuronidase (EcGUS) (P05804 whole entry): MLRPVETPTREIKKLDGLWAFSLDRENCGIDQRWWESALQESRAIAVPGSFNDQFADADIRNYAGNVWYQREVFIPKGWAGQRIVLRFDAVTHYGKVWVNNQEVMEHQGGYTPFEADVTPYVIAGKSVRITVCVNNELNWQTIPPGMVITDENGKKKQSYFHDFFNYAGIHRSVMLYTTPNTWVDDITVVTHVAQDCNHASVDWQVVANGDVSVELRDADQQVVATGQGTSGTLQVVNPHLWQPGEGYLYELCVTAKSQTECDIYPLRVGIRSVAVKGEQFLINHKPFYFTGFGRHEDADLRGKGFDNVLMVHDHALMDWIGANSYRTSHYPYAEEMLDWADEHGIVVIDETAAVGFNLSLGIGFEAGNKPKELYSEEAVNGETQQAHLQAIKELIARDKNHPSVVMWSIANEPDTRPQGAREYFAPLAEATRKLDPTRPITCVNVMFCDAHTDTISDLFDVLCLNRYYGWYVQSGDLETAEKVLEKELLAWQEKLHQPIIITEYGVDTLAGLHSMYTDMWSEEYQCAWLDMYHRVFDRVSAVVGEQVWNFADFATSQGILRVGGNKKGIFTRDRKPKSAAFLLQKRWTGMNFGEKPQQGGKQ

Take `CC1=CC2(C)Oc3c(-c4ccccc4)c[nH]c(=O)c3C2C1C` (stereo not shown) [Compound 2, citridone A]: in assay [1], the IC50 was found to be 44.6 ± 0.84 µM, the “Ki′ (inhibition constant of the enzyme–substrate complex)” value was 69.20 µM, the type of inhibition result is listed as “non-competitive inhibitor” and the Ki came out at 76.3 µM. Further, the inhibition at 100 µM in assay [1] is above 60%. The Vmax in assay [1] (inhibitor concentration 0.02 mM) was found to be 38.33 ± 2.97 mg/μmol⋅min. In addition, the Vmax in assay [1] (inhibitor concentration 0.04 mM) is given as 32.36 ± 3.11 mg/μmol⋅min. The Vmax in assay [1] (inhibitor concentration 0.08 mM) came to 23.58 ± 2.49 mg/μmol⋅min. Besides, in assay [2], the “inhibition of staphyloxanthin biosynthesis” value is listed as “inhibit the biosynthesis of staphyloxanthin”. For the same compound, the “potentiation of miconazole activity” value in the assay on Candida albicans is “potentiator of miconazole”.
Take `CC(=C[C@@H](C)[C@H]1CC[C@@H]2[C@]1(C)CC=C1[C@]23C=C[C@]2(C[C@@H](O)CC[C@]12C)OO3)[C@H](C)C(C)C` [Compound 3, 5α,8α-epidioxy-23,24(R)-dimethylcholesta-6,9(11),22-trien-3β-ol]: in assay [1], the IC50 was 21.6 ± 0.76 µM, the “Ki′ (inhibition constant of the enzyme–substrate complex)” value came to 48.80 µM, the type of inhibition entry was “mixed-type” and the Ki amounted to 89 µM. Also, the inhibition at 100 µM in assay [1] was above 60%. For the same compound, the Vmax in assay [1] (inhibitor concentration 0.015 mM) was found to be 29.05 ± 1.14 mg/μmol⋅min. Further, the Vmax in assay [1] (inhibitor concentration 0.030 mM) turned out to be 22.03 ± 1.06 mg/μmol⋅min. Besides, the Vmax in assay [1] (inhibitor concentration 0.050 mM) was determined as 18.22 ± 0.64 mg/μmol⋅min.
For `O=C(O)[C@@H](O)[C@H]1OC(=O)[C@H](O)[C@H]1O` [DSL, D-saccharic acid 1,4-lactone, reference compound], half-maximal inhibition in assay [1] (IC50) required 47.9 ± 0.89 µM.
